Assay results: patent publication US20230226095A1, “METHODS AND COMPOSITIONS FOR TREATING C[…]” (The Children's Medical Center Corporation, priority 2020, published 2023)

Legend:
Treg cells = assay: In vitro induction of Notch4 expression in Treg cells; type: cell-based; conditions: Treg cells from PBS or Poly I:C-treated mice
Procedure: To further elucidate the mechanisms of Notch4 induction in Treg cells, in vitro studies were conducted to examine the capacity of Poly I:C and cytokine treatment to upregulate Notch4 expression in Treg cells isolated from PBS or Poly I:C-treated mice.

lung tissue Treg cells = assay: Daily intra-tracheal instillation of Poly I:C, flow cytometry of lung T cells; type: in vivo, mice
Description: To investigate the mechanism by which Notch4 licenses lung tissue inflammation in viral respiratory infections, its role in Poly I:C-induced airway inflammation was first examined. Poly I:C stimulates Toll like receptor 3 and the downstream viral RNA sensors cytoplasmic retinoic acid-inducible gene I (RIG-I) and melanoma differentiation-associated protein 5 (MDA5), thus providing a proxy model of RNA viral infections (Broggi et al., 2020; Iwasaki and Pillai, 2014; Kato et al., 2006). […] Treg cell specific deletion of Notch4 using a Foxp3-driven Cre recombinase (Foxp3YFPCre) and floxed Notch4 allele (Foxp3YFPCreNotch4Δ/Δ) protected the mice from the weight loss induced by the Poly I:C treatment (data not shown).
(§1) Polyinosinic-polycytidylic acid (Poly I:C) mouse model. Mice were treated intratracheally with 2.5 mg/kg of Poly I:C HMW (InvivoGen) daily for six consecutive days. The weight of the mice was recorded daily upon application of the Poly I:C. The mice were subjected to airway hyperresponsiveness at day 7, then euthanized and analyzed. For blockading amphiregulin, mice were treated with a peptide spanning amino acids 91140 of the middle region of the human amphiregulin preproprotein (amphiregulin91-140 peptide; Mybiosource). The peptide was given intratracheally at 10 µg/ml in PBS in a final volume of 100 µl. For the amphiregulin neutralizing antibody tests, the mice were given intraperitoneally 20 µg of goat anti-mouse amphiregulin mAb (clone AF989; R&D systems) or isotype control mAb (clone AB-108-C; R&D systems) daily for the duration of the experiment.

lung macrophages = assay: Lung macrophage M1/M2 polarization in vitro upon Poly I:C treatment; type: cell-based, mice; conditions: in vitro treatment with Poly I:C
Procedure: Regulatory T-cell co-cultures with macrophages. Macrophages cells are isolated from lungs of Poly I:C-treated mice. Macrophages were isolated based on CD45^+ F4/80^+ MHCII^+. Macrophages were then co-cultured (at 1:1 concentration) with lungs Treg cells from Foxp3^YFPCre or Foxp3^YFPCreNotch4^Δ/Δ mice Poly I:C-treated mice. Cells were treated with Poly I:C at a concentration of 10 ug/ml for three days. After 72 h, M1 (F4/80^+ MHCII^+ CD68^+ CD80^+CD86^+) and M2 (F4/80^+ MHCII^+ CD163^+ CD206^+) polarization was measured by flow cytometric analysis.
M1 and M2 gating strategy. M1 was defined as follows: CD45^+CD4^-F4/80^+MHCII^+ CD68^+ CD80^+CD86^+ while M2 macrophages were defined as follows: CD45^+CD4^-F4/80^+ MHCII+CD163+CD206+.

[1] = system: Foxp3YFPCre mice treated with Poly I:C; assay: Recombinant amphiregulin therapy in Poly I:C-induced lung inflammation; type: in vivo; conditions: data not shown
Description: To establish the role of amphiregulin in the protection against lung inflammation induced by Notch4 depletion, the capacity of recombinant amphiregulin therapy to rescue Poly I:C-induced lung inflammation was examined. […] Recombinant amphiregulin also reversed the skewing of lung macrophages towards an M1 phenotype upon in vitro treatment with Poly I:C (FIG. 7H), mirroring the same effect of Foxp3YFPCreNotch4Δ/Δ Treg cells (data not shown).
as §1

[2] = daily intra-tracheal for 6 consecutive days

Row | Molecule | Notch4 expression in lung Treg cells (Treg cells) | Notch4 expression in splenic Treg cells (Treg cells) | expression of Hippo pathway effector Yap in lung tissue Treg cells (lung tissue Treg cells; Poly I:C treatment) | expression of Wnt pathway effector beta-Catenin in lung tissue Treg cells (lung tissue Treg cells; Poly I:C treatment) | expression of Notch4 on CD4+ Teff cells (lung tissue Treg cells; [2]) | frequencies and absolute numbers of Notch4 expressing lung tissue Treg cells and MFI of Notch4 (lung tissue Treg cells; [2]) | skewing of lung macrophages towards an M1 phenotype (lung macrophages) | epithelial barrier function ([1]; Poly I:C treatment) | inflammatory responses induced by Poly I:C treatment [1] | weight loss induced by Poly I:C treatment [1]
1 | Polyinosinic-polycytidylic acid [Poly I:C] | increased Notch4 expression | not splenic | potently induced | unchanged | minimal expression | sharp progressive increase |  |  |  | 
2 | recombinant amphiregulin: recombinant epidermal growth factor-like cytokine amphiregulin, necessary for tissue repair (protein, UniProt P15514 101-187, looked up) Amphiregulin: SVRVEQVVKPPQNKTESENTSDKPKRKKKGGKNGKNRRNRKKKNPCNAEFQNFCIHGECKYIEHLEAVTCKCQQEYFGERCGEKSMK |  |  |  |  |  |  | reversed | restoration of an intact epithelial barrier function | largely abrogated | largely abrogated
